The values below come from ChEMBL document CHEMBL1146616, “Synthesis and structure-activity relationships of open D-Ring galanthamine analogues” (Bioorg Med Chem Lett, 2003).

T1 sequence (P06276 whole entry): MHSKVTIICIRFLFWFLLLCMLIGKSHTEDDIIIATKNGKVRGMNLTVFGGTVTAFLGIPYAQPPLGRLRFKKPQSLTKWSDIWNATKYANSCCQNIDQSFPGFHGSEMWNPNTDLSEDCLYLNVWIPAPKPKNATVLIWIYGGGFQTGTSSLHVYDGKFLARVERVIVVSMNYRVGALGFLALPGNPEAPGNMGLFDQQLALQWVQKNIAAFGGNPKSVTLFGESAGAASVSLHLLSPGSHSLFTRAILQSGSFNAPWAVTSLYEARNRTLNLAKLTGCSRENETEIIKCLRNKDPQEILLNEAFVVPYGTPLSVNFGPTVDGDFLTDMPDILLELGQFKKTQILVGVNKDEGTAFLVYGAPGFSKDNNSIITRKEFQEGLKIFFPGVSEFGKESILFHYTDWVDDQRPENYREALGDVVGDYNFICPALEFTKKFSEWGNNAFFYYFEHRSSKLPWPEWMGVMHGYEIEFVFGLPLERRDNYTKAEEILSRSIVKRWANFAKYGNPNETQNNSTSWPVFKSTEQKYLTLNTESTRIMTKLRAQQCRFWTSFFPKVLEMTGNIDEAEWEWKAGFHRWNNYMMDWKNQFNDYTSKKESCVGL
Acetylcholinesterase, sequence (O42275 whole entry): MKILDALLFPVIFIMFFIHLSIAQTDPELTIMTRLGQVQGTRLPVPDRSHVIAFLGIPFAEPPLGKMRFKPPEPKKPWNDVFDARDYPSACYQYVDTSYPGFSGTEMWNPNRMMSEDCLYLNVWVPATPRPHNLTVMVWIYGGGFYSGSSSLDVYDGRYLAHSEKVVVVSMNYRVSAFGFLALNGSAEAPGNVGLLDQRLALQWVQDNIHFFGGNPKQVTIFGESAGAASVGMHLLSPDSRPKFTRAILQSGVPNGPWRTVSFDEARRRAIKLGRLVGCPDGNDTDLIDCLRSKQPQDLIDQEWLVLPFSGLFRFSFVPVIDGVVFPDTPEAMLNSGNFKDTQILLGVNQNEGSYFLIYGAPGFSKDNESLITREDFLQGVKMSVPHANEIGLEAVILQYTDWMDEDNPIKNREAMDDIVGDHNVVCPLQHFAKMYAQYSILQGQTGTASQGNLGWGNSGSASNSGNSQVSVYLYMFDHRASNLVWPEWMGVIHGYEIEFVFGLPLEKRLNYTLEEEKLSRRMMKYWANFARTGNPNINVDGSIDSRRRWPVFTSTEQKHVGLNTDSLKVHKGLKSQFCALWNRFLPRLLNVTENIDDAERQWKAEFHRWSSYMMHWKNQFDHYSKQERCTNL

One test addresses Acetylcholinesterase (Electrophorus electricus, UniProt O42275).
Description: In vitro inhibitory activity against acetylcholinesterase (AChE) in Electrophorus electricus
Consider `CCOC(=O)N(C)CC[C@@]12C=C[C@H](O)C[C@@H]1Oc1c(OC)ccc(C=O)c12`, for which 1000 µM corresponded to half-maximal inhibition (IC50). That is a millimolar value.
The same measure, in the same setting: the result for `CCOC(=O)N1CC[C@@]23C=C[C@H](O)C[C@@H]2Oc2c(OC)ccc(c23)C1` reads 67 µM.
As to `CCOC(=O)O[C@H]1C=C[C@@]2(CCN(C)C(=O)OCC)c3c(CCl)ccc(OC)c3O[C@H]2C1`, half-maximal inhibition (IC50) was put at 650 µM.
The same measure, in the same setting: for `COc1ccc2c3c1O[C@H]1C[C@@H](O)C=C[C@@]31CCN(C)OC2` the value was 9900 µM; for `CCOC(=O)N(C)CC[C@@]12C=C[C@H](O)C[C@@H]1Oc1c(OC)ccc(CO)c12`, 580 µM.

The next test has as its target T1, Cholinesterase (Homo sapiens, UniProt P06276).
Description: In vitro inhibitory activity against Butyrylcholinesterase (BChE) in human serum
For the compound `CCOC(=O)N(C)CC[C@@]12C=C[C@H](O)C[C@@H]1Oc1c(OC)ccc(C=O)c12`, the IC50 – broadly, the midpoint of a concentration-inhibition curve – amounted to 155 µM.
The same measure, in the same setting: the result for `CCOC(=O)N1CC[C@@]23C=C[C@H](O)C[C@@H]2Oc2c(OC)ccc(c23)C1` reads 300 µM; that for `CCOC(=O)O[C@H]1C=C[C@@]2(CCN(C)C(=O)OCC)c3c(CCl)ccc(OC)c3O[C@H]2C1`, 790 µM.
With `COc1ccc2c3c1O[C@H]1C[C@@H](O)C=C[C@@]31CCN(C)OC2`, the IC50 was 960 µM. This IC50 and that of the compound before are within 1.5-fold of each other.
Same read-out and setting: the result for `CCOC(=O)N(C)CC[C@@]12C=C[C@H](O)C[C@@H]1Oc1c(OC)ccc(CO)c12` reads 216 µM.

For another test, the target named is T1, Cholinesterase. In words: Ratio of inhibitory activity against butyrylcholinesterase (BChE) to that of acetylcholinesterase (AChE).
Regarding `CCOC(=O)N1CC[C@@]23C=C[C@H](O)C[C@@H]2Oc2c(OC)ccc(c23)C1`, the Selectivity was found to be 4.5.
Turning to `CCOC(=O)O[C@H]1C=C[C@@]2(CCN(C)C(=O)OCC)c3c(CCl)ccc(OC)c3O[C@H]2C1`, the Selectivity was found to be 1.2.
